Data taken from publication PMC4806279, “Metabolism and Metabolic Inhibition of Xanthotoxol in Human Liver Microsomes” (Evidence-based Complementary and Alternative Medicine : eCAM, 2016).

Tests used:
cytochrome P450s (CYPs) = test: Inhibition of xanthotoxol metabolite production in HLMs by a nonspecific CYP inhibitor; format: in vitro ADME, human; conditions: xanthotoxol as substrate, 500 μM ABT
Experimental: Inhibition study was conducted using the above incubation system consisting of liver microsomes, NADPH-generating system, probe substrate at the concentration of about K m value, and xanthotoxol (or the control inhibitor). The concentrations of positive inhibitors used were as follows: 10 μM furafylline for CYP1A2, 2.5 μM 8-methoxypsoralen for CYP2A6, 10 μM quercetin for CYP2C8, 10 μM sulfaphenazole for CYP2C9, 10 μM quinidine for CYP2D6, 50 μM clomethiazole for CYP2E1, 20 μM omeprazole for CYP2C19, 1 μM ketoconazole for CYP3A4, and 500 μM ABT for broad CYP450s. […]

CYP1A2 = target: T1, CYP1A2 (Homo sapiens, UniProt P05177); test: Inhibition of phenacetin o-deethylation in human liver microsomes; format: in vitro ADME
T1 construct: The HLMs were prepared from eleven individual human donor livers; tissue Research Institute for Liver Disease Co. (Shanghai, China); host or cells: human liver microsomes, pool of eleven donors
T1 sequence (P05177 1-516): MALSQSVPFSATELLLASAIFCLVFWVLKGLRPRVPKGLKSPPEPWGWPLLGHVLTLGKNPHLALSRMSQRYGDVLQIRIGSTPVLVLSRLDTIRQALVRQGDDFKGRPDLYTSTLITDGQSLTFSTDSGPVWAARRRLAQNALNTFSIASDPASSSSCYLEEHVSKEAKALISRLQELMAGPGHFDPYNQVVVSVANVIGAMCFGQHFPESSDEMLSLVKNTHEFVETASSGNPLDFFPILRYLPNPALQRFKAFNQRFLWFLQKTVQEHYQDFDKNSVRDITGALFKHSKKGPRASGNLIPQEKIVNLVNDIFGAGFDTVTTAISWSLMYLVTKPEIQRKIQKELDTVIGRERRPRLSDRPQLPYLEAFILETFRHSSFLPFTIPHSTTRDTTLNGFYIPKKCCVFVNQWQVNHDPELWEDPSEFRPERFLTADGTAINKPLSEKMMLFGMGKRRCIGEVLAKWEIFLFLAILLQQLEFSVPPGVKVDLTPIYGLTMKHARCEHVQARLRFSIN
Experimental: (§1) Liver microsomes from human (HLMs) used in this study were provided by the Research Institute for Liver Disease Co. (Shanghai, China). The HLMs were prepared from eleven individual human donor livers. Protein concentration and microsomes activities of CYP2C19, CYP2A6, CYP2C8, CYP2D6, CYP1A2, CYP2C9, CYP2E1, and CYP3A4 had been previously characterized by the Research Institute for Liver Disease Co.
(§2) HLMs phenacetin o-deethylation, coumarin 7-hydroxylation, paclitaxel 6α-hydroxylation, diclofenac 4′-hydroxylation, dextromethorphan o-demethylation, chlorzoxazone 6-hydroxylation, testosterone 6β-hydroxylation, and S-mephenytoin 4′-hydroxylation activities were utilized as selective markers for CYP1A2, CYP2A6, CYP2C8, CYP2C9, CYP2D6, CYP2E1, CYP3A4, and CYP2C19.
(§3) The optimal conditions for microsomal incubation were described previously. The incubation mixture, with a total volume of 200 μL, consisted of 100 mM potassium phosphate buffer (pH 7.4), an NADPH-generating system (10 mM glucose 6-phosphate, 1 unit/mL of glucose 6-phosphate dehydrogenase, and 4 mM MgCl2), liver microsomes (0.3 mg/mL), or recombinant CYP450s (15 nM). […] After a 5 min preincubation at 37°C, the NADP^+ (1 mM, 20 μL) was added into the mixture to initiate the reaction. The reaction was terminated by the addition of methanol (200 μL) with internal standard. The mixture was kept on ice until it was centrifuged at 20 000 ×g for 10 min at 4°C. Aliquots of supernatants were stored at −40°C until analysis. Control incubations without NADPH or without substrate or without microsomes were carried out to ensure that the formation of metabolites was microsomes and NADPH dependent. All incubations throughout the study were carried out in at least three independent experiments with standard deviations (SD) generally below 10%.
(§4) Inhibition study was conducted using the above incubation system consisting of liver microsomes, NADPH-generating system, probe substrate at the concentration of about K m value, and xanthotoxol (or the control inhibitor). […]

CYP2A6 = target: T2, CYP2A6 (Homo sapiens, UniProt P11509); format: in vitro ADME; conditions: 100 μM, pH 7.4
T2 construct: The HLMs were prepared from eleven individual human donor livers; tissue Research Institute for Liver Disease Co. (Shanghai, China); host or cells: human liver microsomes, pool of eleven donors
T2 sequence (P11509 1-494): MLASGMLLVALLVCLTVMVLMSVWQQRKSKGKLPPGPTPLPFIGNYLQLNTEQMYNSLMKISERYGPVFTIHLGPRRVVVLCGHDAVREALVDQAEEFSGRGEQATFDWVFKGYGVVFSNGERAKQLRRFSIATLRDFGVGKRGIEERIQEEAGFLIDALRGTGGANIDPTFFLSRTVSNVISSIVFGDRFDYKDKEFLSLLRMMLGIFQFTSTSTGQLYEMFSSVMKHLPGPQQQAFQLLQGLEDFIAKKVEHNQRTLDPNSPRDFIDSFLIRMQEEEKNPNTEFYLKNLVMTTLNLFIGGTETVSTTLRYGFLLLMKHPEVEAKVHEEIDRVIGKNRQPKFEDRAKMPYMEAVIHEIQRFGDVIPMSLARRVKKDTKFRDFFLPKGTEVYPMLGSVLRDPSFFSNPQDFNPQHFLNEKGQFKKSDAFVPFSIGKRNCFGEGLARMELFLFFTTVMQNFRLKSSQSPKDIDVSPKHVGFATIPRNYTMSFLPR
Experimental: as §1, §2, §3, §4

CYP2C8 = target: T3, CYP2C8 (Homo sapiens, UniProt P10632); format: in vitro ADME; conditions: 100 μM, pH 7.4
T3 construct: The HLMs were prepared from eleven individual human donor livers; tissue Research Institute for Liver Disease Co. (Shanghai, China); host or cells: human liver microsomes, pool of eleven donors
T3 sequence (P10632 1-490): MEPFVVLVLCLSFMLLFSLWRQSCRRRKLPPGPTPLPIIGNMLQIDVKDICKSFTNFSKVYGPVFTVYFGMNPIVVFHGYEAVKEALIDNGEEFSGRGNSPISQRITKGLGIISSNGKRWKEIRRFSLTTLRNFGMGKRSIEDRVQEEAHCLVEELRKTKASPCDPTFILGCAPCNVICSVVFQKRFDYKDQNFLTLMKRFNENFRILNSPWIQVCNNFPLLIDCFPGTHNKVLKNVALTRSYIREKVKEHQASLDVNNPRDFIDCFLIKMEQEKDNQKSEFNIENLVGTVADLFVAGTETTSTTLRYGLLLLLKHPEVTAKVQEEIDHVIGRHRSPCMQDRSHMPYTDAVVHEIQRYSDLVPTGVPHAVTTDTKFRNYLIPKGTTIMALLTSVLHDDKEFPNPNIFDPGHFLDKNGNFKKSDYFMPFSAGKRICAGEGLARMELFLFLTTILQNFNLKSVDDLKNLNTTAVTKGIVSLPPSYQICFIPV
Experimental: as §1, §2, §3, §4

CYP2E1 [1] = target: T4, CYP2E1 (Homo sapiens, UniProt P05181); format: in vitro ADME; conditions: 100 μM, pH 7.4
T4 construct: The HLMs were prepared from eleven individual human donor livers; tissue Research Institute for Liver Disease Co. (Shanghai, China); host or cells: human liver microsomes, pool of eleven donors
Experimental: as §1, §2, §3, §4

CYP3A4 = target: T5, CYP3A4 (Homo sapiens, UniProt P08684); test: Inhibition of testosterone 6β-hydroxylation in human liver microsomes; format: in vitro ADME
T5 construct: The HLMs were prepared from eleven individual human donor livers; tissue Research Institute for Liver Disease Co. (Shanghai, China); host or cells: human liver microsomes, pool of eleven donors
Experimental: as §1, §2, §3, §4

CYP2E1 [2] = target: T4, CYP2E1; format: in vitro ADME; conditions: recombinant enzyme, 30 min, 10 mM, pH 7.4
Experimental: as §3
The enzymes involved in the xanthotoxol metabolism were investigated using cDNA-expressed human P450 isoforms including CYP3A4, CYP2D6, CYP2E1, CYP2C9, CYP2C19, and CYP1A2. The incubation for each isoenzyme was carried out as described for the liver microsomal study. […]

in vitro = in vitro ADME; conditions: human
Experimental: as §3
To estimate kinetic parameters of xanthotoxol and make sure that the formations of metabolites were in the linear range of both reaction time and the concentration of microsomes, xanthotoxol (0.25–200 μM) was incubated with pooled HLMs for 30 min. Reaction velocities and substrate concentrations were used to calculate the apparent K m and V max values according to nonlinear regression from the Michaelis-Menten equation (see (1)). CLint was calculated as V max/K m. In addition, the result was graphically represented on Eadie-Hofstee plots (velocities versus ratios of velocities to substrate concentrations) to determine whether the metabolism was monophasic or biphasic. Consider(1) V=Vmax·S/Km+S, where V max was the maximum reaction velocity, K m was the Michaelis constant that represented the substrate concentration at which the velocity was half of V max, V was the reaction velocity, and [S] was the substrate concentration.

[3] = format: in vitro ADME; conditions: human
From the text: The following equations were used to predict the xanthotoxol clearance in human:(2) CLint in vitro=Vmax/Km,CLint in vivo=CLint in vitro·SF,CLH=QH·fu·CLint in vivo/QH+fu·CLint in vivo, where SF (scaling factor) represents the milligrams of microsomal protein per gram of liver multiplied by the grams of liver weight; CLint is the intrinsic metabolic clearance; CLH is hepatic clearance; f u is the free fraction in blood (there are no data of xanthotoxol; here f u was arbitrarily proposed to be 1); Q H is the hepatic blood flow. The hepatic clearance of xanthotoxol was calculated using (2), and physiological parameters in human were described as follows: microsomal protein per gram of liver, liver weight per kilogram of body, and liver blood flow for human were 48.8 mg, 25.7 g, and 20.7 mL·min^−1·kg^−1, respectively.

[4] = HLMs, Lineweaver-Burk and Dixon plots

T5 sequence (P08684 whole entry): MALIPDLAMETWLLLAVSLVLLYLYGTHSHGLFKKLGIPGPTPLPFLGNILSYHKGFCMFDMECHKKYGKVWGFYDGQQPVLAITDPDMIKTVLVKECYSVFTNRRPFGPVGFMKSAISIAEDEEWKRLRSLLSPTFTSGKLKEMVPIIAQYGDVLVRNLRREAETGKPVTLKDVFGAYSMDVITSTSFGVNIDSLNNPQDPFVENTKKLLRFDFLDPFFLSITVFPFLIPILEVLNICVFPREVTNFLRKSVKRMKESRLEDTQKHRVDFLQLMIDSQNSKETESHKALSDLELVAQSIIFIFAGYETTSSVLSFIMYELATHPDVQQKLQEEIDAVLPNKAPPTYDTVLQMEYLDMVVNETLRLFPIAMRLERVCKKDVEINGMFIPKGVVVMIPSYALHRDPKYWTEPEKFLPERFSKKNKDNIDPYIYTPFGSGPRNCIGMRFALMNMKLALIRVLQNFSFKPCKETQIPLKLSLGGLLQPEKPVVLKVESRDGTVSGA
T4 sequence (P05181 whole entry): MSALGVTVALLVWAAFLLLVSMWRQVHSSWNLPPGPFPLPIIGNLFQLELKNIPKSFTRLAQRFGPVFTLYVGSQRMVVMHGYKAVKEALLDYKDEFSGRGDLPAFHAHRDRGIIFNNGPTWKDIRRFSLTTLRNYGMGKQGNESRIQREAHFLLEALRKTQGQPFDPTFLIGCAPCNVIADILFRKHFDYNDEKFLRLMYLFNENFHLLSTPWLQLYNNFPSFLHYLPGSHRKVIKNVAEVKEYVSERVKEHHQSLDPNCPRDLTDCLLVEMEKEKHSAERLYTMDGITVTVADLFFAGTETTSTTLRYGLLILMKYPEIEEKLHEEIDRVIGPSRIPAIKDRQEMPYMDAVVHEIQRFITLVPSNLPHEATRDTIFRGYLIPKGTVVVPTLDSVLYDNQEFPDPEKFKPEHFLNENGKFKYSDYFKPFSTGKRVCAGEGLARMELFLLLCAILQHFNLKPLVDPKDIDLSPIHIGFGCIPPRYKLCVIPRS

## Nn1nnc2ccccc21 [Aminobenzotriazole (ABT), 1-aminobenzotriazole]
Cytochrome P450s (CYPs)
  inhibition against metabolite production: potent inhibition

## O=c1ccc2cc3ccoc3c(O)c2o1 [xanthotoxol, Xanthotoxol]
CYP1A2
  IC50: 27.8 µM
  Ki: 21.1 µM
CYP1A2; [4]
  type of inhibition of CYP1A2: noncompetitive
CYP2A6
  inhibited the activity of CYP2A6: 82.1%
CYP2C8
  inhibited the activity of CYP2C8: 52.1%
CYP2E1 [1]
  inhibited the activity of CYP2E1: 25.9%
CYP3A4
  IC50: 7.43 µM
  Ki: 2.22 µM
CYP3A4; [4]
  type of inhibition of CYP3A4: noncompetitive
CYP2E1 [2]
  amount of metabolite M generated compared to CYP1A2 level: 7.3%
In vitro; 30 min, pH 7.4
  Vmax of xanthotoxol metabolism: 0.55 nmol/min/mg
In vitro; microsomes, pH 7.4
  Intrinsic clearance (CLint): 65 µL/min/mg
In vitro; microsomes, pH 7.4, Intrinsic clearance (CLint)
  microsomal CLint: 60 µL/min/mg
In vitro; pH 7.4
  Km at 30 min: 8.46 µM
[3]
  hepatic clearance (CLH): 15.91 mL·min^−1·kg^−1 body weight
  percentage of CLH versus hepatic blood flow (QH)%: 76.8%
[3]; microsomes
  clearance classification: high-clearance drug
